Blank lines part the entries; values can stand above or below the compound they belong to.
How the values were obtained:
Assay type in all cases: cell-based
[1] = target: T1, rat P2X7 (Rattus norvegicus, UniProt Q64663); experiment: ATP-induced ethidium dye uptake, […] inhibition at […]; settings: read-out: % inhibition at 2.5 mM
T1 construct: gene P2rx7; rat P2X7 stably expressed in HEK-293 cells
T1 sequence (Q64663 1-595): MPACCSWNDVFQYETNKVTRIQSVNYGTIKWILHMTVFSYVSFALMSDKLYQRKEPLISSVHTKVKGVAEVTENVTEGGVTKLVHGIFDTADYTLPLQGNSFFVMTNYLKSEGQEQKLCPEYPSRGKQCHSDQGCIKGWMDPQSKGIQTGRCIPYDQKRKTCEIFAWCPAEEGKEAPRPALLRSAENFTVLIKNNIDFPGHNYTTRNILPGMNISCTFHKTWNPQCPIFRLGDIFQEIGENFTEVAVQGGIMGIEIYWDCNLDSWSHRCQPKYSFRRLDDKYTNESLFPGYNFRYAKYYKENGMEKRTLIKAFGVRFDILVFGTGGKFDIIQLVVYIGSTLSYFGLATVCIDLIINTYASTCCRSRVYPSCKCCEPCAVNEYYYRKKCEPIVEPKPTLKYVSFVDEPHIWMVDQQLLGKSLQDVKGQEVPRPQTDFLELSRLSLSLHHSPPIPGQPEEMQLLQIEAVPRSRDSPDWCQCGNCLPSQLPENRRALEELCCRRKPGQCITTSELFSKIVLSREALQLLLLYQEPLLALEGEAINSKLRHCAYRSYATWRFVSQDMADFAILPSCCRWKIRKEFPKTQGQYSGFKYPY

[2] = target: T2, human P2X7 receptor (Homo sapiens, UniProt Q99572); experiment: whole-cell patch clamp, Fluo-4 calcium influx and ethidium dye uptake (IC50 from dye uptake, […] ATP); design: gene P2RX7; wild-type human P2X7 stably expressed in HEK-293 cells
T2 sequence (Q99572 1-595): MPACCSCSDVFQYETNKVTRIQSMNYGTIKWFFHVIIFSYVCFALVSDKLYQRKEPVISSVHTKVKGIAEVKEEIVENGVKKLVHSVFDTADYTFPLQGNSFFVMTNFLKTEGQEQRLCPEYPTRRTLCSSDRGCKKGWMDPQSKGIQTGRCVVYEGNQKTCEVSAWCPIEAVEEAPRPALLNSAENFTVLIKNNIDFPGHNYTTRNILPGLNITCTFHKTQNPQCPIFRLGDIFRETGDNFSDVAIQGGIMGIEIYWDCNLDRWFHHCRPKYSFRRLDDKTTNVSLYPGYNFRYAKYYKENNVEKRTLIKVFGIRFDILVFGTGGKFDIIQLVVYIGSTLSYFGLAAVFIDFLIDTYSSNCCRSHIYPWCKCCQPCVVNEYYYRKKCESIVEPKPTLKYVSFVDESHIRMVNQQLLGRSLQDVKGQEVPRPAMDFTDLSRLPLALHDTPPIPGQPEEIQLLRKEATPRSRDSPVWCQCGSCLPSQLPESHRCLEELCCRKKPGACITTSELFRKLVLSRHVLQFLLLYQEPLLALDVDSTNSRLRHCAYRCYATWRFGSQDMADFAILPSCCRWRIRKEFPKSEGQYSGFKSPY

[3] = target: T2, human P2X7 receptor; experiment: ATP-induced ethidium dye uptake; complete block at […]; design: gene P2RX7; human P2X7 stably expressed in HEK-293 cells
[4] = target: T2, human P2X7 receptor; experiment: Fluo-4 calcium influx and ethidium dye uptake; complete block at […]; design: gene P2RX7; human P2X7 stably expressed in HEK-293 cells

inhibition at 2500 µM [1]: 34%
IC50 [2]: 203 µM
Structure (SMILES): CCCN(CCC)S(=O)(=O)c1ccc(C(=O)O)cc1 [PRO, Probenecid]

ATP-induced ethidium dye uptake; complete block at 10 μM [3]: 10 µM
Structure (SMILES): O=C1CSC(=O)N1C(CCc1ccncc1)COc1ccc(-c2cccc([N+](=O)[O-])c2)cc1 (stereo not shown) [AZ11645373]

Structure (SMILES): Clc1cccc(-c2nnnn2Cc2cccnc2)c1Cl [A-438079]
Fluo-4 calcium influx and ethidium dye uptake; complete block at 10 μM [4]: 10 µM

From publication PMC3966854, “Probenecid Blocks Human P2X7 Receptor-Induced Dye Uptake via a Pannexin-1 Independent Mechanism” (PLoS ONE, 2014)
